This is an account of results in US10308617B2, “Triazole benzamide derivatives and the compositions and methods of treatment regarding the same” (An2H Discovery Limited, priority 2016, dated 2019).

Molecules are shown by their SMILES.

This assay has as its target T1, Parkin ligase (Homo sapiens, UniProt O60260).
T1 sequence (O60260 1-465): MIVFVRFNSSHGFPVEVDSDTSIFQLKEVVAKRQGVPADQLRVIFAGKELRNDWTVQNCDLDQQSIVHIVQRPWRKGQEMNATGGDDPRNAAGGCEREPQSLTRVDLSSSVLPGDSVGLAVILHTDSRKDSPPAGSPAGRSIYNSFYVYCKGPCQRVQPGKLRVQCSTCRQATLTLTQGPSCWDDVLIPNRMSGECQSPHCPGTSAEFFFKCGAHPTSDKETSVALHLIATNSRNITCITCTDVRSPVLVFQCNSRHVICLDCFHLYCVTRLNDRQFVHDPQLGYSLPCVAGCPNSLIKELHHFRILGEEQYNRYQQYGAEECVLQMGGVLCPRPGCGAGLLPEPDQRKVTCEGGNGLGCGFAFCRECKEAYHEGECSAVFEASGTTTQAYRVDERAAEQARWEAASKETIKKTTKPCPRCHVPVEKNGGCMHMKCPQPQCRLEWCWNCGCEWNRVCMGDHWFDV
As to the kind of experiment: Activity-Based Probe Assay using an Ubiquitin vinyl sulfone probe (TR-FRET). Format: biochemical. The conditions noted are these: Parkin activation, HA-Ub-VS probe, heat activated Parkin; read-out: Probe Assay EC50 (μM) [Example 2]. Here is the method: An Ubiquitin vinyl sulfone probe can be used that irreversibly binds to the active site cysteine of Parkin ligase. Covalent attachment of the probe to the Parkin can be monitored by TR-FRET. Candidate activator compounds can be identified by increasing the activity of Parkin ligase due to an increase in TR-FRET signal. Screening for activating compounds can be distinguished from the controls as follows: • 100% activation signal=Heat activated Parkin+100 nM control activator in DMSO. • 0% activation signal=Heat activated Parkin+DMSO only. • Parkin activators can be identified by an increase of the 0% activation signal TR-FRET signal.
• Assay Plate: White 384 well plate (Corning 3572) • Enzyme: Parkin-His tagged 203 μM (10.5 mg/ml) • Probe: Ubiquitin vinyl-sulfone (HA-Ub-VS Boston Biochem U-212) • DMSO: DMSO (Sigma cat # D4540-100ML) • Reaction Buffer: 50 mM HEPES (pH 8.5), 150 mM NaCl, 0.01% Tween 20, 0.1% BSA • Detection Buffer: 50 mM HEPES (pH 8.5), 150 mM NaCl, 0.01% Tween 20, 0.1% BSA, 800 mM KF • Detection Reagent A: 2.6 nM Anti-6HIS-Eu cryptate and 40 nM Anti-HA-XL665 in detection buffer • Eu cryptate: Anti-6HIS-Eu cryptate (CisBio 61HISKLA) • XL665: Anti-HA-XL665 (CisBio 610HAXLA) Enzyme Reaction (15 min pre incubation Parkin with activator only) • Parkin: 40 nM • HA-Ub-VS Probe: 70 nM • Activator/DMSO: 2× Activator/2% DMSO • Reaction time: 60 minutes • Temperature: 22° C. • Total volume: 10 μl reaction Detection Reaction • Take 10 μl of Enzyme Reaction above and add 10 μl detection Reagent A under the following conditions: • Reaction time: 60 minutes • Temperature: 22° C. • Total volume: 20 μl
Assay procedure (Using HP D-300 compound dispenser and Bravo for the operation): • 1) Heat activate Parkin in reaction buffer (500 μl/1.5 ml tube: Eppendorf Thermomixer 5 minutes, 400 rpm at 58° C. and put on ice until needed). • 2) Load assay plate wells with 4.8 μl 84.5 nM Parkin in reaction buffer by use of Bravo. • 3) Deliver 0.2 μl 200× activator candidates in DMSO by use of HP D-300 compound dispenser. Highest 200× concentration=[…] and then twofold dilutions. • 4) Spin 1000 rpm, 2 minutes, at room temp. • 5) Incubate plate for 15 minutes at room temp. • 6) Add 5 μl 140 nM HA-Ub-VS Probe in reaction buffer by use of Bravo. • 7) Spin 1000 rpm, 2 minutes, at room temp. • 8) Incubate plate for 60 minutes at room temp. • 9) Add 10 μl 2.6 nM Anti-6HIS-Eu cryptate and 40 nM Anti-HA-XL665 in detection buffer. • 10) Spin 1000 rpm, 2 minutes, at room temp. • 11) Incubate plate for 60 minutes at room temp. • 12) Read plates on Perkin Elmer Envision instrument with the following parameters: • LANCE dual laser protocol loaded into the Envision® software • Top Mirror: LANCE/DELFIA Duel/Bias (Bar code 446) • Emission Filter: APC 665 EM (Bar code 205) • 2nd Emission Filter: Europium 615 EM (Bar code 203) • Read 655 nm (channel 1) and 615 nm (channel 2) wavelengths on Envision®
Data Analysis: The Data can be read in CSV files. There are two tables in those CSV files, which are the values of 655 nm (channel 1) and 615 nm (channel 2) wavelengths respectively. The data is converted to an HTRF Ratio=(Channel 1/Channel 2)*10,000
The average of all the 0 uM controls (DMSO only)=BKGD (Background—0% activation). Subtract BKGD from each HTRF Ratio value=HTRF-BKGD. The average of all the […] 100 nM control activator in DMSO controls=Max (100% activation). The following equation is then used to calculate % Activation for each well/candidate as follows: % Activation=(HTRF-BKGD/Max)*100.
Graphpad Prisim was used with Transform X values: X=Log(X) and nonlinear regression (dose-response-stimulation): Log(agonist) vs Response—variable slope (four parameters) with constrains set to Bottom=0 and Top=100.
The Activity-Based Probe Assay was performed with various compounds in Tables 1-3.
For the compound `Cc1ccccc1C(=O)Nc1nc(NC(=O)c2ccccn2)n(-c2ccccc2)n1` [Compound A3], the EC50 was above 100 µM.

For the compound `Cc1ccccc1C(=O)Nc1nc(NC(=O)c2ccccc2C)n(-c2ccncc2)n1` [Compound B3], the EC50 is above 100 µM.

In the case of `Cc1ccccc1C(=O)Nc1nc(NC(=O)c2ccccc2C)n(C(C)(C)C)n1` [Compound D3], the EC50 is above 100 µM.

For `Cc1ccccc1C(=O)Nc1nc(NC(=O)c2ccccc2F)n(-c2ccccc2)n1` [Compound E3], the EC50 is above 100 µM.

For the compound `Cc1cccc(C(=O)Nc2nc(NC(=O)c3cccc(C)c3)n(-c3ccccc3)n2)c1` [Compound F3], the half-maximal effective concentration (EC50) is above 100 µM.

On to `Cc1ccccc1C(=O)Nc1nc(-c2ccncn2)nn1-c1ccccc1` [Compound G3], for which the EC50 came to 74 µM.

As for `Cc1ccccc1C(=O)Nc1nc(NC(=O)c2ccccc2C)n(CC(C)C)n1` [Compound I3], the EC50 is above 100 µM.

In the case of `Cc1ccccc1C(=O)Nc1nc(NC(=O)c2ccccc2C)n(C2CCCCC2)n1` [Compound J3], the EC50 came to 37 µM.

For `COc1ccccc1C(=O)Nc1nc(NC(=O)c2ccccc2C)nn1-c1ccccc1` [Compound K3], the concentration for a half-maximal effect (EC50) stood at 17 µM.

As for `Cc1ccccc1C(=O)Nc1nc(NCCc2ccccc2)n(-c2ccccc2)n1` [Compound L3], the EC50 was above 100 µM.

For the compound `Cc1ccccc1C(=O)Nc1nc(NC(=O)c2ccncc2)n(-c2ccccc2)n1` [Compound M3], the EC50 is above 100 µM.

Consider `Cc1ccccc1C(=O)Nc1nc(N)n(-c2ccccc2)n1` [Compound N3], for which the EC50 was above 100 µM.

Take `Cc1ccccc1C(=O)Nc1nc(NC(=O)c2ccccc2C)n(-c2ccc(F)cc2)n1` [Compound O3]: the concentration giving a half-maximal response (EC50) was above 100 µM.

On to `Cc1ccccc1C(=O)Nc1nc(NC(=O)c2ccccn2)n(-c2ccccc2)n1` [Compound P3], for which the EC50 amounted to 9 µM.

With `Cc1ccccc1C(=O)Nc1nc(NC(=O)c2ccccc2C)n(-c2cccnc2)n1` [Compound Y2], the EC50 was above 100 µM.
